Measurements as given in the NIST ThermoML archive (doi:10.1021/je700294p).

Legend:
[1] = 101.33 kPa, Liquid, Vibrating tube method
[2] = refractive index (Na D-line) (dimensionless); settings: 101.33 kPa, Liquid, Standard Abbe refractometry
[3] = xn = mol fraction of the nth substance listed; settings: 101 kPa, Liquid
[4] = excess molar enthalpy (molar enthalpy of mixing); xn = mol fraction of the nth substance listed; settings: 101 kPa, Liquid

CCO [ethanol]
Settings	mass density, [1] [kg/m3]	refractive index, [2]
298.15 K	785.15	1.36
318.15 K	767.57	1.3548

CCCC[n+]1cccc(C)c1.F[B-](F)(F)F [1-butyl-3-methylpyridinium tetrafluoroborate] + CO
Settings	excess molar enthalpy [kcal/mol]	mass density [kg/m3]
[3], 298.15 K, x1 = 0.0493	–	873.4
[3], 298.15 K, x1 = 0.0629	–	893.1
[3], 298.15 K, x1 = 0.0986	–	934.4
[3], 298.15 K, x1 = 0.1499	–	979.6
[3], 298.15 K, x1 = 0.2007	–	1014.7
[3], 298.15 K, x1 = 0.2956	–	1061.6
[3], 298.15 K, x1 = 0.4052	–	1098.2
[3], 298.15 K, x1 = 0.5128	–	1122.8
[3], 298.15 K, x1 = 0.6009	–	1138.7
[3], 298.15 K, x1 = 0.6913	–	1151.7
[3], 298.15 K, x1 = 0.7611	–	1159.7
[3], 318.15 K, x1 = 0.0557	–	865.7
[3], 318.15 K, x1 = 0.1052	–	924.3
[3], 318.15 K, x1 = 0.1493	–	964
[3], 318.15 K, x1 = 0.2479	–	1025.1
[3], 318.15 K, x1 = 0.3016	–	1048.4
[3], 318.15 K, x1 = 0.3944	–	1079.5
[3], 318.15 K, x1 = 0.497	–	1104.7
[3], 318.15 K, x1 = 0.5868	–	1121.6
[3], 318.15 K, x1 = 0.7088	–	1139.8
[3], 318.15 K, x1 = 0.855	–	1156.2
[3], 318.15 K, x1 = 0.9465	–	1164.4
[4], 298.15 K, x1 = 0.0057	0.0261	–
[4], 298.15 K, x1 = 0.0149	0.0545	–
[4], 298.15 K, x1 = 0.0279	0.0923	–
[4], 298.15 K, x1 = 0.044	0.13	–
[4], 298.15 K, x1 = 0.0635	0.167	–
[4], 298.15 K, x1 = 0.0842	0.202	–
[4], 298.15 K, x1 = 0.1071	0.237	–
[4], 298.15 K, x1 = 0.1312	0.271	–
[4], 298.15 K, x1 = 0.1585	0.308	–
[4], 298.15 K, x1 = 0.1851	0.332	–
[4], 298.15 K, x1 = 0.2119	0.359	–
[4], 298.15 K, x1 = 0.2357	0.373	–
[4], 298.15 K, x1 = 0.2672	0.382	–
[4], 298.15 K, x1 = 0.3069	0.386	–
[4], 298.15 K, x1 = 0.3541	0.383	–
[4], 298.15 K, x1 = 0.41	0.377	–
[4], 298.15 K, x1 = 0.4816	0.361	–
[4], 298.15 K, x1 = 0.5621	0.33	–
[4], 298.15 K, x1 = 0.7167	0.257	–
[4], 298.15 K, x1 = 0.7441	0.227	–
[4], 298.15 K, x1 = 0.8438	0.158	–
[4], 298.15 K, x1 = 0.9196	0.0942	–
[4], 298.15 K, x1 = 0.9707	0.0416	–
[4], 318.15 K, x1 = 0.0159	0.0588	–
[4], 318.15 K, x1 = 0.0352	0.121	–
[4], 318.15 K, x1 = 0.0581	0.173	–
[4], 318.15 K, x1 = 0.0823	0.224	–
[4], 318.15 K, x1 = 0.1098	0.281	–
[4], 318.15 K, x1 = 0.1382	0.336	–
[4], 318.15 K, x1 = 0.1674	0.39	–
[4], 318.15 K, x1 = 0.197	0.43	–
[4], 318.15 K, x1 = 0.2147	0.462	–
[4], 318.15 K, x1 = 0.2317	0.488	–
[4], 318.15 K, x1 = 0.2641	0.512	–
[4], 318.15 K, x1 = 0.2984	0.533	–
[4], 318.15 K, x1 = 0.3343	0.544	–
[4], 318.15 K, x1 = 0.3787	0.548	–
[4], 318.15 K, x1 = 0.4391	0.538	–
[4], 318.15 K, x1 = 0.5504	0.477	–
[4], 318.15 K, x1 = 0.6911	0.349	–
[4], 318.15 K, x1 = 0.8526	0.191	–

CO [methanol]
Settings	mass density, [1] [kg/m3]	refractive index, [2]
298.15 K	786.44	1.3268
318.15 K	768.04	1.319

CCCCO [butan-1-ol]
Settings	mass density, [1] [kg/m3]	refractive index, [2]
298.15 K	805.95	1.3968
318.15 K	790.27	1.39

CCCO [propan-1-ol]
Settings	mass density, [1] [kg/m3]	refractive index, [2]
298.15 K	799.7	1.3831
318.15 K	783.16	1.3757
